Activity calls are given as the source filed them. No cut-off for these calls is given here.
Experiments:
[1] = biological target: Vascular endothelial growth factor receptor 3 (Homo sapiens) (UniProt P35916); assay: Inhibition of VEGFR3 (unknown origin) at 100 nM incubated for 1 hr in presence of ATP by ELISA analysis
OCI-Ly10 = assay: Induction of apoptosis in human OCILY10 cells assessed as early apoptotic cells at 0.5 uM incubated for 24 hrs by Annexin V-FITC/PI staining based flow cytometry (reference value: 10 %); format: functional

Chain of Vascular endothelial growth factor receptor 3 (Homo sapiens) (P35916 whole entry): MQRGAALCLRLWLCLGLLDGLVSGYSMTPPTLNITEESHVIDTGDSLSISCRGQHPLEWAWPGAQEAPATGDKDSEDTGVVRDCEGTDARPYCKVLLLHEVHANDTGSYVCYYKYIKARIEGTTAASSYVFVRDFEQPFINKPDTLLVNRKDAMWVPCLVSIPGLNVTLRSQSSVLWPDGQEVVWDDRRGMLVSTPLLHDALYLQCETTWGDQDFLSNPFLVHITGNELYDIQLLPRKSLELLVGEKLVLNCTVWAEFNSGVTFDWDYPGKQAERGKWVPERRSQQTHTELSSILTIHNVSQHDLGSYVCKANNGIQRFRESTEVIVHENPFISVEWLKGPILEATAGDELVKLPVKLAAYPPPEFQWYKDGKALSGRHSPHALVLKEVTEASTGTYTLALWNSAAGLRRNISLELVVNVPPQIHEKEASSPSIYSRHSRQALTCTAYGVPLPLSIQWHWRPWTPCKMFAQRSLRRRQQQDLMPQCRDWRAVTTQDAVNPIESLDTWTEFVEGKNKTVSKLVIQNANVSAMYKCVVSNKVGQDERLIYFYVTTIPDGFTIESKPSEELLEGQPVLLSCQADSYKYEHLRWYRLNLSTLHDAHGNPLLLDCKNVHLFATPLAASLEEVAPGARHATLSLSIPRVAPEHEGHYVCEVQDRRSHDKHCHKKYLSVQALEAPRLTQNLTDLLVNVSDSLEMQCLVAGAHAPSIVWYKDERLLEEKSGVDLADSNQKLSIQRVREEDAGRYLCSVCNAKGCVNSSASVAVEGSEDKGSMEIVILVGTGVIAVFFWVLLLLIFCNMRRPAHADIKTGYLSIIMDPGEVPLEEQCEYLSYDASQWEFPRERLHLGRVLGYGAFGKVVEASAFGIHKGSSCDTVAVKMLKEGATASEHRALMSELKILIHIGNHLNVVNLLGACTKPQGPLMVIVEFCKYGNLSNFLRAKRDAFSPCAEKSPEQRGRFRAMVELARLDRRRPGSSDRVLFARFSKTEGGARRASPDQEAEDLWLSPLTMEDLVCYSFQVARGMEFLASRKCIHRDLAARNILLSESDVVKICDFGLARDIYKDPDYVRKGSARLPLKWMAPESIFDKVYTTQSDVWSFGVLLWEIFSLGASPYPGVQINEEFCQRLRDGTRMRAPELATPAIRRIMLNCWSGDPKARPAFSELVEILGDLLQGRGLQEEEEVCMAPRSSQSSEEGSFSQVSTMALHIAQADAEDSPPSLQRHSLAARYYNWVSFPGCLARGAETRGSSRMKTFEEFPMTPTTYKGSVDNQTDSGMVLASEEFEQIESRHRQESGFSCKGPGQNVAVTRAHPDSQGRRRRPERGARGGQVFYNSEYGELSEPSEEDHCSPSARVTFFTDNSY

**Q.** With `Cn1cc(-c2cc3c(cc2NC(=O)c2coc(-c4ccnc(N)c4)n2)CC(C)(C)O3)cn1` as the compound, how does the inhibition [1] read?
**A.** inactive

**Q.** What about the Activity (OCI-Ly10) of the same compound?
**A.** 22.8%

From ChEMBL document CHEMBL5370531, “Design, synthesis and pharmacological evaluation of 2,3-dihydrobenzofuran IRAK4 inhibitors for the treatment of diffuse large B-cell lymphoma” (Eur J Med Chem, 2023)
